From US20200253929A1, “TREATMENT OF EPILEPSY” (priority 2017, published 2020)

Columns and labels:
[1] = test system: PTZ-induced epileptiform brain activity in zebrafish larvae; assay: Zebrafish PTZ seizure model, local field potential recordings (electrophysiology); assay type: in vivo, Danio rerio; details: 10 min recording, vs VHC+PTZ; for reduction of percentage of larvae with PTZ-induced epileptiform activity: MTC and optimal incubation time (2 h azaspirofuran, 18 h pseurotins), 15 min PTZ; for cumulative duration of epileptiform events / number of epileptiform events: MTC and optimal incubation time
Source text: To determine whether azaspirofuran A and pseurotin A2 can ameliorate the PTZ-induced hyperexcitable state of the brain that is characterized by epileptiform discharges, local field potential (LFP) recordings were non-invasively measured from the midbrain (optic tectum) of zebrafish larvae [Zdebik et al. (2013) PLoS One 8, e79765; Britton et al. (2016) In Electroencephalography (EEG): An Introductory Text and Atlas of Normal and Abnormal Findings in Adults, Children, and Infants (St. Louis and Frey, Eds.), Chicago]. To that end larvae were treated with either VHC or test compound (MTC and optimal incubation time were used) followed by a 15 min during exposure to PTZ or VHC prior to the electrophysiology measurements (FIG. 4). […] Thus, both compounds not only ameliorate PTZ-induced seizures but are likely to do so by lowering the PTZ-induced hyperexcitable state of the brain.
Experimental procedure was described before [Zdebik et al. (2013) PLoS One 8, e79765; Sourbron et al. (2017) Front. Pharmac. 8, 191; Copmans et al. (2018) Neurochem. Int. 112, 124-133.]. Non-invasive LFP recordings were measured from the midbrain (optic tectum) of 7 dpf zebrafish larvae pre-incubated with VHC only, PTZ only, compound and VHC, or compound and PTZ. Larvae were incubated for approximately 2 or 18 hours with VHC (1% DMSO) or compound (1% DMSO) in a 100 μL volume. After incubation, 100 μL of VHC (embryo medium) or 40 mM PTZ (dissolved in embryo medium, 20 mM working concentration) was added to the well for 15 min prior to recording. These steps occurred at 28° C., while further manipulation and electrophysiological recordings occurred at room temperature (21° C.). The larva was embedded in 2% low melting point agarose (Invitrogen) and the signal electrode (an electrode inside a soda-glass pipet (1412227, Hilgenberg) pulled with a DMZ Universal Puller (Zeitz, Germany), diameter±20 microns, containing artificial cerebrospinal fluid (ACSF: 124 mM NaCl, 10 mM glucose, 2 mM KCl, 2 mM MgSO4, 2 mM CaCl2, 1.25 mM KH2PO4, and 26 mM NaHCO3, 300-310 mOsmols)) was positioned on the skin covering the optic tectum. A differential extracellular amplifier (DAGAN, USA) amplified the voltage difference between the signal (measured by the signal electrode) and the reference electrode. The differential signal was band pass filtered at 0.3-300 Hz and digitized at 2 kHz via a PCI-6251 interface (National instruments, UK) using WinEDR (John Dempster, University of Strathclyde, UK). A grounding electrode grounded the electrical system. All electrodes were connected with ACSF. Each recording lasted 600 seconds. Manual analysis was completed by quantification of the number, cumulative duration, and mean duration of epileptiform-like events with Clampfit 10.2 software (Molecular Devices Corporation, USA). An electrical discharge was considered epileptiform if it was a poly-spiking event comprising at least 3 spikes with a minimum amplitude of three times the baseline amplitude and a duration of at least 100 milliseconds. Data are expressed as mean±SD for the number and cumulative duration of epileptiform events and as mean±SEM for the mean duration of events.

HEPG2 cells = assay: Cell viability MTT assay, HEPG2 cells; assay type: cell-based, human; details: 24 h incubation; for IC50: read-out: Cytotoxicity HEPG2 cells IC50
Procedure: (§1) Protocol was based on literature [Patel and Patel. (2011) J. App. Pharm. Sci 1, 167-171]. Three cell lines were used: a) Hep G2 (HB-8065), a well-differentiated human hepatocellular carcinoma cell line, b) THLE-2, human liver epithelial cells transformed with SV40 large T-antigen and c) SHSYSY, a thrice-cloned sub-line of a human metastatic bone tumor. Cells were seeded at a concentration of 1×10^4 cells/well in 200 μL culture medium and incubated at 37° C. in 5% CO2 using 96-well plates for 24 h. Next, the medium was replaced with medium complemented with test compounds. After another 24 h incubation, the medium was replaced by 100 μL of a MTT (3-(4,5-dimethylthiazol-2-yl)-2,5-diphenyltetrazolium bromide) solution (5 mg/mL in PBS and diluted at 0.5 mg/mL in MEM without phenol red). The plates were gently shaken and incubated for 3 hours at 37° C. in a 5% CO2 incubator. The supernatant was removed and 100 μL of 100% DMSO was added. The plates were gently shaken to solubilize the formed formazan. The absorbance was measured using a multireader (Victor2 (Wallac)) at a wavelength of 570 nm.

THLE2 cells = assay: Cell viability MTT assay, THLE2 cells; assay type: cell-based, human; details: 24 h incubation; for IC50: read-out: Cytotoxicity THLE2 cells IC50
Procedure: as §1

Nav1.5 channel = biological target: T1, Nav1.5 channel (Homo sapiens, UniProt Q14524); assay: Cardiotoxicity fluorescence-based assay, Nav1.5 channel; assay type: cell-based; details: HEK293 cells
T1 construct: expressed in transfected cells; host or cells: HEK293
T1 sequence (Q14524 whole entry): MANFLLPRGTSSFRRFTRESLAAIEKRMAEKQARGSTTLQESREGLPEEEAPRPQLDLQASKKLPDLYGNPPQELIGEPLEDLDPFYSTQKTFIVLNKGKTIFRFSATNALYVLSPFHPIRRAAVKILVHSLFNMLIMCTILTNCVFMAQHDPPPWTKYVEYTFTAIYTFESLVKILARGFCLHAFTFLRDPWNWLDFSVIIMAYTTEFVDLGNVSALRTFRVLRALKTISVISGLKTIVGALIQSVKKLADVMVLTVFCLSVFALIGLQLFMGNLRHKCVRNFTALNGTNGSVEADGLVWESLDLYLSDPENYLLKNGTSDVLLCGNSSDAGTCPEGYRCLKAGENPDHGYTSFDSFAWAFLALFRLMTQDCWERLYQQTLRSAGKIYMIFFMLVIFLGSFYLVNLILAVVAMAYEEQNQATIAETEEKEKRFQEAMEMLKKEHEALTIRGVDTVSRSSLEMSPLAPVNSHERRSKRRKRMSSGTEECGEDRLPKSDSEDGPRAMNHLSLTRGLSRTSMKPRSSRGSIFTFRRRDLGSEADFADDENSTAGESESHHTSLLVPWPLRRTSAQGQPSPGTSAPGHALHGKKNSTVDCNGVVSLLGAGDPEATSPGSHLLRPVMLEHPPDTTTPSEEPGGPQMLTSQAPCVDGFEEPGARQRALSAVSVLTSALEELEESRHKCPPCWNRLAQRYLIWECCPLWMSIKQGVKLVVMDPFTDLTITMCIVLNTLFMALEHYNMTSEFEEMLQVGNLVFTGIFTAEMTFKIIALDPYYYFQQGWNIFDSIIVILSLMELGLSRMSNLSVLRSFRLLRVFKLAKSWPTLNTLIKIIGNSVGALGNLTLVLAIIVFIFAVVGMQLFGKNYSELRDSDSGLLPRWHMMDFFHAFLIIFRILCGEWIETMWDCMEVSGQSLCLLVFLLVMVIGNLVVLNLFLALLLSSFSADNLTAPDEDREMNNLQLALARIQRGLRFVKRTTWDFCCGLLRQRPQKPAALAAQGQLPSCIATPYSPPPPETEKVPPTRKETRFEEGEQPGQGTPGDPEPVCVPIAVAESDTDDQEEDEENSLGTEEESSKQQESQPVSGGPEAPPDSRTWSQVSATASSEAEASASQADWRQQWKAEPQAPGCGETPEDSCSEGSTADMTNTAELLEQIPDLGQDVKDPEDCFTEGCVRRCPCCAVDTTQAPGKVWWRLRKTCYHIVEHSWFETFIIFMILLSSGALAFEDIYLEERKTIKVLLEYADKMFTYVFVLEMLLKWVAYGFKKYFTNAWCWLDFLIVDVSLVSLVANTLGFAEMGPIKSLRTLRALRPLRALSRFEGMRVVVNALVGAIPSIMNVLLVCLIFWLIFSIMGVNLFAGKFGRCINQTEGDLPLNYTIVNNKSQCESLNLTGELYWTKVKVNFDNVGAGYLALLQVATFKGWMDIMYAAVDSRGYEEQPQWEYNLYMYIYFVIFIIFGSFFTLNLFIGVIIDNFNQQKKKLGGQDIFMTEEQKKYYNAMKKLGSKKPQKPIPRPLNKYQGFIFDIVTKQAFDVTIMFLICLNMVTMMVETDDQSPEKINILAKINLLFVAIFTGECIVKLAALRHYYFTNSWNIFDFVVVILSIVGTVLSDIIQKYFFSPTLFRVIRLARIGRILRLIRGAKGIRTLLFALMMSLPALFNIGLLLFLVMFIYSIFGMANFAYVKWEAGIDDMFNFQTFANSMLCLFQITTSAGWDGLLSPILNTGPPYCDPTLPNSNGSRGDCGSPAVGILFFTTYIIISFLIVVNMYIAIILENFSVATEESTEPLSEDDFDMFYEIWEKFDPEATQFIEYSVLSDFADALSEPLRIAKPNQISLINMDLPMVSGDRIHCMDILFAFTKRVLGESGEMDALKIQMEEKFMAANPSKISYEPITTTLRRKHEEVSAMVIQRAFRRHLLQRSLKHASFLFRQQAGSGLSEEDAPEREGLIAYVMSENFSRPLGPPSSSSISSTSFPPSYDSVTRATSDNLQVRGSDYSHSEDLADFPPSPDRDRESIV
Procedure: Fluorescence-based assays were performed using HEK293 cell lines that stably express the Nav1.5-channel, Cav1.2-channel or hERG K+-channel, using FMP Red Dye (Molecular Devices), calcium-sensitive fluorescent dye Fluo-4 (Invitrogen) and FIuxOR™ reagent (Invitrogen), respectively, and a FLIPR Tetra High-Throughput Cellular Screening System (Molecular Devices), according to manufacturer's protocols (Molecular Devices). Tetrodotoxin (TTX), israpidine and nicarpidine, and astemizole and haloperidol were used as standard sodium channel, calcium channel, and hERG channel blockers. Data were analyzed using Genedata Screener.

Row | SMILES | reduction of percentage of larvae with PTZ-induced epileptiform activity [1] | cumulative duration of epileptiform events [1] | number of epileptiform events [1] | Cytotoxicity HEPG2 cells, effect (HEPG2 cells) | IC50 (HEPG2 cells) | Cytotoxicity THLE2 cells, effect (THLE2 cells) | IC50 (THLE2 cells) | Cardiotoxicity Nav1.5 channel, effect (Nav1.5 channel) | IC50 (Nav1.5 channel)
1 | CCc1ccc(C2=C(C)C(=O)C3(O2)C(=O)NC(OC)(C(=O)c2ccccc2)C3O)o1 (stereo not drawn) [azaspirofuran A] | ~60% | shorter cumulative duration of events | significantly less epileptiform events | No effect | > 50 µM | Weak | > 50 µM | Low | 39.1 µM
2 | CC/C=C\[C@H](O)[C@H](O)C1=C(C)C(=O)[C@]2(O1)C(=O)N[C@](OC)(C(=O)c1ccccc1)[C@H]2O [pseurotin A2] | 33% | shorter cumulative duration of events | significantly less epileptiform events | No effect | > 50 µM | Weak | > 50 µM | No effect | > 50 µM
